Experimental data taken from article PMC8916643, “Molecular physiology of pumiliotoxin sequestration in a poison frog” (PLoS ONE, 2022).

Columns and labels:
[1] = Alkaloid feeding experiment, alkaloid abundance in tissues by LC-MS/MS; format: in vivo, Dendrobates tinctorius
Excerpt: Lab-reared (non-toxic) Dendrobates tinctorius were housed in terraria with live plants, a water pool, and a shelter. Ten adult females were size-matched, randomly assigned to control or experimental groups (N = 5 per group), and then housed individually. To measure the specific effects of PTX 251D compared to a background toxicity, the control group was fed 0.01% DHQ (Sigma-Aldrich, St. Louis, USA) in a solution of 1% EtOH and the experimental group was fed a solution of 0.01% DHQ and 0.01% PTX 251D (PepTech, Burlington, MA, USA) in a solution of 1% EtOH in water. Each frog was fed 15 μL each day for five days by pipetting the solution directly into the mouth between 10am-12pm. On the afternoon of the fifth day, frogs were euthanized by cervical transection and the dorsal skin, liver, intestines, and oocytes were dissected into Trizol (Thermo Fisher Scientific, Waltham, USA).
To isolate alkaloids, 0.3 mL of 100% EtOH was added to 1mL of organic layer from the Trizol RNA extraction, inverted 10 times, and stored at room temperature for 2–3 minutes to precipitate genomic DNA, which was pelleted by centrifugation at 2000g for 5 minutes at 4°C. Then, 300 μL of supernatant was transferred to a new microfuge tube. Proteins were precipitated by adding 900 μL of acetone, mixing by inversion for 10–15 seconds, incubating at room temperature for 10 min, and centrifuging at max speed for 10 min at 4°C. Then, 1 mL of the supernatant containing alkaloids was moved into a glass vial and stored at -20°C until dried down completely under a gentle nitrogen gas flow.
Samples were resuspended in 200 μl of methanol:chloroform 1:1 and 1 μM Nicotine-d3 (used as an internal standard). A 10-point standard curve was prepared in the same solution with DHQ and PTX 251D. A QE+ mass spectrometer coupled to an Ultimate3000 LC (ThermoFisher) was used for analysis. […] The gradient was 0% B for 1 min, then increased to 100% B in 14 min, followed by 5 min at 100% B and 3.5 min at 0% B. Data were quantified using accurate mass, using the standard curve for DHQ and PTX 251D for absolute quantification. aPTX 267A was identified by accurate mass and MS/MS fragmentation similarity to PTX.
R version 3.6.3 was used for all statistical analyses, and all plotting and statistics code is provided in a S1 File. There were instances in the LC-MS/MS data where the molecules of interest (DHQ, PTX 251D, or aPTX 267A) were not detected, and these were converted to zeros prior to statistical analyses and visualization. […] PTX 251D and DHQ were analyzed separately. The abundance of aPTX 267A was approximated using the area-under-the-curve divided by the internal nicotine standard, and as there is no standard for aPTX 267A, exact pmol values could not be calculated. […]

[2] = test system: mice; conditions: cited from earlier work

| SMILES | DHQ abundance across tissue types ([1]; fed orally daily for five days, skin, liver, intestines, oocytes) | aPTX 267A abundance across tissues ([1]; DHQ+PTX feeding group) | aPTX 267A in the skin after PTX 251D feeding ([1]; DHQ+PTX feeding group vs DHQ-fed group, all individuals, area-under-the-curve divided by internal nicotine standard) | lethal dose (hyperactivity, convulsions, and death) ([2]; injected into mice) [mg/kg] | lethal dose relative to that of PTX 251D ([2]; mice) |
| --- | --- | --- | --- | --- | --- |
| C1CCC2NCCCC2C1 (centres unmarked) [DHQ, reference compound] | highest levels occurring in the liver and skin |  |  |  |  |
| CCCCC(C)C=C1CN2CCCC2C(C)(O)C1O (centres unmarked) [aPTX 267A, allopumiliotoxin (aPTX 267A)] |  | greater abundance in the skin than the oocytes | higher levels than the DHQ-fed group | 2 | five times lower |
